Experimental data as given in ChEMBL document CHEMBL4673242, “Penithoketone and Penithochromones A-L, Polyketides from the Deep-Sea-Derived Fungus Penicillium thomii YPGA3” (J Nat Prod, 2020).

Legend:
LNCaP C4-2B [1] = assay: Cytotoxicity against human LNCaP C4-2B cells assessed as reduction in cell viability at 50 uM after 72 hrs by MTT assay relative to control; format: functional
MDA-MB-468 [2] = assay: Cytotoxicity against human MDA-MB-468 cells assessed as reduction in cell viability at 50 uM after 72 hrs by MTT assay relative to control; format: functional
RAW264.7 = assay: Inhibition of LPS-induced NO production in mouse RAW264.7 cells at 50 uM relative to control; format: functional
MCF7 [3] = assay: Cytotoxicity against human MCF7 cells assessed as reduction in cell viability at 50 uM after 72 hrs by MTT assay relative to control; format: functional
LNCaP C4-2B [4] = assay: Cytotoxicity against human enzalutamide-resistant LNCaP C4-2B cells assessed as reduction in cell viability at 50 uM after 72 hrs by MTT assay relative to control; format: functional
LNCaP C4-2B [5] = assay: Cytotoxicity against human enzalutamide-resistant LNCaP C4-2B cells assessed as reduction in cell viability after 72 hrs by MTT assay; format: functional, cell-based
MCF7 [6] = assay: Cytotoxicity against human MCF7 cells assessed as reduction in cell viability after 72 hrs by MTT assay; format: functional, cell-based; details: MCF7, 72 h
LNCaP C4-2B [7] = assay: Cytotoxicity against human LNCaP C4-2B cells assessed as reduction in cell viability after 72 hrs by MTT assay; format: functional, cell-based
MDA-MB-468 [8] = assay: Cytotoxicity against human MDA-MB-468 cells assessed as reduction in cell viability after 72 hrs by MTT assay; format: functional, cell-based; details: MDA-MB-468, 72 h

Structure (SMILES) | Activity (LNCaP C4-2B [1]) [%] | Activity (MDA-MB-468 [2]) [%] | inhibition at 50 µM (RAW264.7) [%] | Activity (MCF7 [3]) [%] | Activity (LNCaP C4-2B [4]) [%] | IC50 (LNCaP C4-2B [5]) [µM] | IC50 (MCF7 [6]) [µM] | IC50 (LNCaP C4-2B [7]) [µM] | IC50 (MDA-MB-468 [8]) [µM]
COc1cc(OC)c2c(=O)cc(CCCCC(=O)O)oc2c1 | <30 | <30 | < 30 | <30 | <30 | – | – | – | –
COC(=O)CCCCCCc1cc(=O)c2c(OC)cc(O)cc2o1 | <30 | <30 | < 30 | <30 | <30 | – | – | – | –
COC(=O)CCc1cc(=O)c2c(OC)cc(OC)cc2o1 | <30 | <30 | < 30 | <30 | <30 | – | – | – | –
COC(=O)CCCCCCc1cc(=O)c2c(O)cc(OC)cc2o1 | <30 | <30 | < 30 | <30 | <30 | – | – | – | –
COC1=C(O)C(=O)c2c(O)cccc2C1=O | >50 | >50 | < 30 | >50 | >50 | > 50 | > 50 | 41 | 38
COc1cc(OC)c2c(=O)cc(CCCC/C=C/C(=O)O)oc2c1 | <30 | <30 | < 30 | <30 | <30 | – | – | – | –
COC(=O)CCCCCCc1cc(=O)c2c(OC)cc(OC)cc2o1 | <30 | <30 | < 30 | <30 | <30 | – | – | – | –
COc1cc(O)c2c(=O)cc(CCCCCCC(=O)O)oc2c1 | <30 | <30 | < 30 | <30 | <30 | – | – | – | –
COC(=O)CCCCCCc1cc(=O)c2c(O)cc(O)cc2o1 | <30 | <30 | < 30 | <30 | <30 | – | – | – | –
COc1cc(OC)c2c(=O)cc(CCCCCCC(=O)O)oc2c1 | <30 | <30 | < 30 | <30 | <30 | – | – | – | –
COC1=C(O)C(=O)c2c(O)cccc2[C@@]1(OC)[C@@H](C)C1=CC(=O)OC1 | >50 | >50 | < 30 | >50 | >50 | 14 | 21 | 9.1 | 15
O=C(O)CCCCCCc1cc(=O)c2c(O)cc(O)cc2o1 | <30 | <30 | < 30 | <30 | <30 | – | – | – | –
COC(=O)CCCCc1cc(=O)c2c(OC)cc(OC)cc2o1 | <30 | <30 | < 30 | <30 | <30 | – | – | – | –
COC(=O)CCCc1cc(=O)c2c(OC)cc(O)cc2o1 | <30 | <30 | < 30 | <30 | <30 | – | – | – | –
COC1=CC(=O)c2c(O)cccc2C1=O | >50 | >50 | < 30 | >50 | >50 | 13 | 11 | 6.4 | 4.9
